Laboratory results reported in ChEMBL document CHEMBL1909046, “DrugMatrix in vitro pharmacology data”.

Columns and labels:
[1] = DRUGMATRIX: Imidazoline I2, Central radioligand binding (ligand: [3H] Idazoxan); format: cell membranes, Rattus norvegicus, Wistar, Cerebral cortex, Membrane; settings: Not Active = under 50% inhibition at 10 µM
[2] = target: 5-hydroxytryptamine receptor 1B (Rattus norvegicus, UniProt P28564); format: cell membranes, Wistar, Cerebral cortex, Membrane; note: in other assays of this panel Not Active means under 50% inhibition at 10 µM
[3] = target: Receptor tyrosine-protein kinase erbB-2 (Homo sapiens, UniProt P04626); assay: biochemical; format: cell-based, Insect cells; settings: insect cells;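 note: inhibition of HER2 kinase enzyme activity, measured with Poly(Glu:Tyr) as the phosphorylation substrate; in other assays of this panel Not Active means under 50% inhibition at 10 µM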
[4] = target: T1, Caspase-1 (Homo sapiens, UniProt P29466); design: species or system Escherichia coli;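 note: Caspase-1 enzyme inhibition assay with a peptide substrate; in other assays of this panel Not Active means under 50% inhibition at 10 µM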
T1 sequence (P29466 whole entry): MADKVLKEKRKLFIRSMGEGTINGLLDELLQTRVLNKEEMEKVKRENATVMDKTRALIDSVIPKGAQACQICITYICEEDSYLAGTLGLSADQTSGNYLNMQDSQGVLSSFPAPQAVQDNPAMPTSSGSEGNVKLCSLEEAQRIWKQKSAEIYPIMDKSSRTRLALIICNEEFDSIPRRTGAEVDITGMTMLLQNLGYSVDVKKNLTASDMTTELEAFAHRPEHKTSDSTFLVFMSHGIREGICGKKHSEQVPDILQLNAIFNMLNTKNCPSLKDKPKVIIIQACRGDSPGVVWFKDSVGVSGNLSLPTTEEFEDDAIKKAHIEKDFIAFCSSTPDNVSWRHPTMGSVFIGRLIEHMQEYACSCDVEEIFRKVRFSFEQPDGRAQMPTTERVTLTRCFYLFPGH

[5] = DRUGMATRIX: Glutamate, AMPA radioligand binding (ligand: [3H] AMPA); format: cell membranes, Rattus norvegicus, Wistar, Cerebral cortex, Membrane; settings: Not Active = under 50% inhibition at 10 µM
[6] = target: Platelet-activating factor receptor (Homo sapiens, UniProt P25105); assay: biochemical; format: tissue-based; settings: platelet; note: in other assays of this panel Not Active means under 50% inhibition at 10 µM
Chain of Platelet-activating factor receptor (P25105 whole entry): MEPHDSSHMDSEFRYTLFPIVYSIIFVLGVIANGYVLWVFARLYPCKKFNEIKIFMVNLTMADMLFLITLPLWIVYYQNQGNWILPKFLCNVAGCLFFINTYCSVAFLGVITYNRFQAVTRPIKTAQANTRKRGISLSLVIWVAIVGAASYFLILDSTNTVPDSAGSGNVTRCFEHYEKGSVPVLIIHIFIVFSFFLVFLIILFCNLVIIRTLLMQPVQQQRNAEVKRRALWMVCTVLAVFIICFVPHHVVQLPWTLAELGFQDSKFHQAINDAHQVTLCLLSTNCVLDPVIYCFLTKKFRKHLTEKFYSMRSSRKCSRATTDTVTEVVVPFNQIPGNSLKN

Chain of 5-hydroxytryptamine receptor 1B (P28564 whole entry): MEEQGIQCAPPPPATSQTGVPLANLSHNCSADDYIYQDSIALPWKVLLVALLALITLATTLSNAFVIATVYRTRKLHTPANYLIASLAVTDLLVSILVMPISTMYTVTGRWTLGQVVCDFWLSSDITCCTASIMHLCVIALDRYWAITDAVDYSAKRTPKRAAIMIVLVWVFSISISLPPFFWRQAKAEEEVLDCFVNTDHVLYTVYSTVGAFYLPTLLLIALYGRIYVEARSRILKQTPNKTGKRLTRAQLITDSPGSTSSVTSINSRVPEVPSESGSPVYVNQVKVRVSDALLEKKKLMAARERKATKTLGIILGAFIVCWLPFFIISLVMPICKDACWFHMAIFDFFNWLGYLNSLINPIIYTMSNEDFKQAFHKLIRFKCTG

Row | Compound | IC50 [1] | Ki [1] | IC50 [2] | IC50 [3] | IC50 [4] | IC50 [5] | Ki [5] | IC50 [6] | Ki [2] | IC50 ([3]; read-out: IC50) | Ki [4] | Ki [6] | Ki [3]
1 | CC(C(=O)O)c1ccc(CC2CCCC2=O)cc1 (stereo unspecified) [LOXOPROFEN] | Not Active | Not Active | Not Active | Not Active | Not Active | Not Active | Not Active | Not Active | – | – | – | – | –
2 | Cc1cccc(Nc2ccccc2C(=O)O)c1C [MEFENAMIC ACID] | Not Active | Not Active | Not Active | Not Active | Not Active | Not Active | Not Active | Not Active | – | – | – | – | –
3 | CC(=O)O[C@]1(C(C)=O)CC[C@H]2[C@@H]3C=C(C)C4=CC(=O)CC[C@]4(C)[C@H]3CC[C@@]21C [MEGESTROL ACETATE] | Not Active | Not Active | Not Active | Not Active | Not Active | Not Active | Not Active | Not Active | – | – | – | – | –
4 | COc1ccccc1OCC(O)COC(N)=O (stereo unspecified) [METHOCARBAMOL] | Not Active | Not Active | Not Active | Not Active | Not Active | Not Active | Not Active | Not Active | – | – | – | – | –
5 | CN(Cc1cnc2nc(N)nc(N)c2n1)c1ccc(C(=O)N[C@@H](CCC(=O)O)C(=O)O)cc1 [METHOTREXATE] | Not Active | Not Active | Not Active | Not Active | Not Active | Not Active | Not Active | Not Active | – | – | – | – | –
6 | COC(=O)c1ccccc1O [METHYL SALICYLATE] | Not Active | Not Active | Not Active | Not Active | Not Active | Not Active | Not Active | Not Active | – | – | – | – | –
7 | COc1ccc2cc(CCC(C)=O)ccc2c1 [NABUMETONE] | Not Active | Not Active | Not Active | Not Active | Not Active | Not Active | Not Active | Not Active | – | – | – | – | –
8 | O=C(O)c1cccnc1 [NIACIN] | Not Active | Not Active | Not Active | Not Active | Not Active | Not Active | Not Active | Not Active | – | – | – | – | –
9 | CNC(=C[N+](=O)[O-])NCCSCc1csc(CN(C)C)n1 [NIZATIDINE] | Not Active | Not Active | Not Active | Not Active | Not Active | Not Active | Not Active | Not Active | – | – | – | – | –
10 | C[C@]12C/C(=C/O)C(=O)C[C@@H]1CC[C@@H]1[C@@H]2CC[C@@]2(C)[C@H]1CC[C@]2(C)O [OXYMETHOLONE] | Not Active | Not Active | Not Active | Not Active | Not Active | Not Active | Not Active | Not Active | – | – | – | – | –
11 | CC(C)(CO)C(O)C(=O)NCCCO (stereo unspecified) [PANTHENOL] | Not Active | Not Active | Not Active | Not Active | Not Active | Not Active | Not Active | Not Active | – | – | – | – | –
12 | COc1ccc(Cc2nccc3cc(OC)c(OC)cc23)cc1OC [PAPAVERINE] | Not Active | Not Active | Not Active | Not Active | Not Active | Not Active | Not Active | Not Active | – | – | – | – | –
13 | OCCN1CCN(CCCN2c3ccccc3Sc3ccc(Cl)cc32)CC1 [PERPHENAZINE] | Not Active | Not Active | Not Active | Not Active | Not Active | Not Active | Not Active | Not Active | – | – | – | – | –
14 | CCCCC1C(=O)N(c2ccccc2)N(c2ccccc2)C1=O [PHENYLBUTAZONE] | Not Active | Not Active | Not Active | Not Active | Not Active | Not Active | Not Active | Not Active | – | – | – | – | –
15 | Cc1cccc(Nc2cc(Cl)nc(SCC(=O)O)n2)c1C [PIRINIXIC ACID] | Not Active | Not Active | Not Active | Not Active | Not Active | Not Active | Not Active | Not Active | – | – | – | – | –
16 | CC[C@H](C)C(=O)O[C@H]1C[C@H](O)C=C2C=C[C@H](C)[C@H](CC[C@@H](O)C[C@@H](O)CC(=O)O)[C@H]21 [PRAVASTATIN] | Not Active | Not Active | Not Active | Not Active | Not Active | Not Active | Not Active | Not Active | – | – | – | – | –
17 | CC(C)(Sc1cc(C(C)(C)C)c(O)c(C(C)(C)C)c1)Sc1cc(C(C)(C)C)c(O)c(C(C)(C)C)c1 [PROBUCOL] | Not Active | Not Active | Not Active | Not Active | Not Active | Not Active | Not Active | Not Active | – | – | – | – | –
18 | COBALT(II) ACETYLACETONATE | Not Active | Not Active | Not Active | – | Not Active | Not Active | Not Active | Not Active | Not Active | 3.17 µM | Not Active | Not Active | –
19 | INSULIN HUMAN | Not Active | Not Active | Not Active | Not Active | Not Active | Not Active | Not Active | Not Active | Not Active | – | Not Active | Not Active | Not Active
20 | POLYVINYL ALCOHOL | Not Active | Not Active | Not Active | Not Active | Not Active | Not Active | Not Active | Not Active | Not Active | – | Not Active | Not Active | Not Active
